# Measurements: article PMC10742472, “Synthesis and Characterisation of Platinum(II) Diaminocyclohexane Complexes with Pyridine Derivatives as Anticancer Agents” (International Journal of Molecular Sciences, 2023)
# Test system: H460 (Lung)
# Experiment: MTT cytotoxicity assay, H460
# Format: cell-based
# Conditions: 72 h exposure
row,Compound,GI50 [nM]
1,"N[C@H]1CCCC[C@@H]1N.[Pt+2].c1ccc(-c2ncc[nH]2)nc1 [Complex 5a, [Pt(2-(1H-Imidazol-2-yl)pyridine)(1S,2S-(+)-diaminocyclohexane)]^2+]",290 ± 50
2,N[C@H]1CCCC[C@@H]1N.[Pt+2].c1ccc(-c2nc3ccccc3[nH]2)nc1 [Complex 6a],260 ± 40

# Test system: not given
# Experiment: not given
# Format: physicochemical
# Conditions: not given
# Experimental: Lipophilicity was calculated using RP-HPLC. A stock solution of each PC was injected at different isocratic ratios ranging from 70–90% solvent B (organic) at a flow rate of 1 mL·min^−1 [32, 33, 34]. The complexes have low solubility in water, often requiring DMSO to make concentrated solutions. Yet the LogK’ calculated using these experimental data indicated high lipophilicity, which is typical for 2+ charged complexes. […] When heat was applied, they would not precipitate out of the solution after cooling. This confirmed that a lack of persistence was the cause of the “observed” low solubility in H2O. […] Their increased lipophilicity may indicate they have the potential to be administered orally, a characteristic usually associated with Pt(IV) complexes. Other factors, such as stability and cellular absorption, would need to be considered before the potential of these Pt(II) anticancer agents could be evaluated.
# Lipophilicity was evaluated using RP-HPLC, whereby LogKw is calculated by injecting a stock solution of the PC at different isocratic ratios ranging from 70–90% solvent B (organic) at a flow rate of 1 mL·min^−1. An Agilent Technologies 1260 Infinity machine equipped with a Phenomenex Onyx™ Monolithic C18 reverse phase column (100 × 4.6 mm, 130 Å) was used to determine purity. The mobile phase comprised 0.06% TFA in water (solvent A) and 0.06% TFA in 90:10 ACN:H2O mixture (solvent B). The PC peak was eluted outside the dead zero volume time to avoid inaccurate results. The dead zero volume time was determined using potassium iodide as an external dead volume marker, with further details in the Supplementary Materials. The subsequent peaks were recorded, and K was calculated using Equation (6). (6) K=tr−t0/t0 where K is the capacity factor, tr is the retention time of the analyte, and t0 is the dead time determined using a solution of KI in the same column. At least five different isocratic ratios were used to assess each PC, and each experiment was repeated three times. LogK’ was then calculated and plotted against the concentration of ACN in the mobile phase. […] (7) LogK^′=Sφ+LogKw where S is the slope, φ is the concentration of ACN in the mobile phase, and LogKw represents the capacity factor of the compound in 100% water (Figure S49).
row,Compound,Lipophilicity
1,"N[C@H]1CCCC[C@@H]1N.[Pt+2].c1ccc(-c2ncc[nH]2)nc1 [Complex 5a, [Pt(2-(1H-Imidazol-2-yl)pyridine)(1S,2S-(+)-diaminocyclohexane)]^2+]",2.50 ± 0.02
2,N[C@H]1CCCC[C@@H]1N.[Pt+2].c1ccc(-c2nc3ccccc3[nH]2)nc1 [Complex 6a],2.42 ± 0.02

# Test system: U87 (Glioblastoma)
# Experiment: MTT cytotoxicity assay, U87
# Format: cell-based
# Conditions: 72 h exposure
row,Compound,GI50 [nM]
1,"N[C@H]1CCCC[C@@H]1N.[Pt+2].c1ccc(-c2ncc[nH]2)nc1 [Complex 5a, [Pt(2-(1H-Imidazol-2-yl)pyridine)(1S,2S-(+)-diaminocyclohexane)]^2+]",36 ± 9
2,N[C@H]1CCCC[C@@H]1N.[Pt+2].c1ccc(-c2nc3ccccc3[nH]2)nc1 [Complex 6a],34 ± 3

# Test system: A431 (Skin)
# Experiment: MTT cytotoxicity assay, A431
# Format: cell-based
# Conditions: 72 h exposure
row,Compound,GI50 [nM]
1,"N[C@H]1CCCC[C@@H]1N.[Pt+2].c1ccc(-c2ncc[nH]2)nc1 [Complex 5a, [Pt(2-(1H-Imidazol-2-yl)pyridine)(1S,2S-(+)-diaminocyclohexane)]^2+]",370 ± 60
2,N[C@H]1CCCC[C@@H]1N.[Pt+2].c1ccc(-c2nc3ccccc3[nH]2)nc1 [Complex 6a],360 ± 50

# Test system: MCF-7 (Breast)
# Experiment: MTT cytotoxicity assay, MCF-7
# Format: cell-based
# Conditions: 72 h exposure
row,Compound,GI50 [nM]
1,"N[C@H]1CCCC[C@@H]1N.[Pt+2].c1ccc(-c2ncc[nH]2)nc1 [Complex 5a, [Pt(2-(1H-Imidazol-2-yl)pyridine)(1S,2S-(+)-diaminocyclohexane)]^2+]",150 ± 30
2,N[C@H]1CCCC[C@@H]1N.[Pt+2].c1ccc(-c2nc3ccccc3[nH]2)nc1 [Complex 6a],160 ± 30

# Test system: MIA (Pancreas)
# Experiment: MTT cytotoxicity assay, MIA
# Format: cell-based
# Conditions: 72 h exposure
row,Compound,GI50 [nM]
1,"N[C@H]1CCCC[C@@H]1N.[Pt+2].c1ccc(-c2ncc[nH]2)nc1 [Complex 5a, [Pt(2-(1H-Imidazol-2-yl)pyridine)(1S,2S-(+)-diaminocyclohexane)]^2+]",430 ± 70
2,N[C@H]1CCCC[C@@H]1N.[Pt+2].c1ccc(-c2nc3ccccc3[nH]2)nc1 [Complex 6a],300 ± 30

# Test system: Du145 (Prostate)
# Experiment: MTT cytotoxicity assay, Du145
# Format: cell-based
# Conditions: 72 h exposure
row,Compound,GI50 [nM]
1,"N[C@H]1CCCC[C@@H]1N.[Pt+2].c1ccc(-c2ncc[nH]2)nc1 [Complex 5a, [Pt(2-(1H-Imidazol-2-yl)pyridine)(1S,2S-(+)-diaminocyclohexane)]^2+]",290 ± 70
2,N[C@H]1CCCC[C@@H]1N.[Pt+2].c1ccc(-c2nc3ccccc3[nH]2)nc1 [Complex 6a],300 ± 40

# Test system: MCF10A (Breast, Normal)
# Experiment: MTT cytotoxicity assay, MCF10A non-cancer breast cells
# Format: cell-based
# Conditions: 72 h exposure
row,Compound,GI50 [nM]
1,"N[C@H]1CCCC[C@@H]1N.[Pt+2].c1ccc(-c2ncc[nH]2)nc1 [Complex 5a, [Pt(2-(1H-Imidazol-2-yl)pyridine)(1S,2S-(+)-diaminocyclohexane)]^2+]",150 ± 30
2,N[C@H]1CCCC[C@@H]1N.[Pt+2].c1ccc(-c2nc3ccccc3[nH]2)nc1 [Complex 6a],150 ± 10

# Test system: HT29 (Colon)
# Experiment: MTT cytotoxicity assay, HT29
# Format: cell-based
# Conditions: 72 h exposure
row,Compound,GI50 [nM]
1,"N[C@H]1CCCC[C@@H]1N.[Pt+2].c1ccc(-c2ncc[nH]2)nc1 [Complex 5a, [Pt(2-(1H-Imidazol-2-yl)pyridine)(1S,2S-(+)-diaminocyclohexane)]^2+]",560 ± 100
2,N[C@H]1CCCC[C@@H]1N.[Pt+2].c1ccc(-c2nc3ccccc3[nH]2)nc1 [Complex 6a],450 ± 20

# Test system: SJ-G2 (Glioblastoma)
# Experiment: MTT cytotoxicity assay, SJ-G2
# Format: cell-based
# Conditions: 72 h exposure
row,Compound,GI50 [nM]
1,"N[C@H]1CCCC[C@@H]1N.[Pt+2].c1ccc(-c2ncc[nH]2)nc1 [Complex 5a, [Pt(2-(1H-Imidazol-2-yl)pyridine)(1S,2S-(+)-diaminocyclohexane)]^2+]",2700 ± 460
2,N[C@H]1CCCC[C@@H]1N.[Pt+2].c1ccc(-c2nc3ccccc3[nH]2)nc1 [Complex 6a],2700 ± 290

# Test system: BE2-C (Neuroblastoma)
# Experiment: MTT cytotoxicity assay, BE2-C
# Format: cell-based
# Conditions: 72 h exposure
row,Compound,GI50 [nM]
1,"N[C@H]1CCCC[C@@H]1N.[Pt+2].c1ccc(-c2ncc[nH]2)nc1 [Complex 5a, [Pt(2-(1H-Imidazol-2-yl)pyridine)(1S,2S-(+)-diaminocyclohexane)]^2+]",210 ± 40
2,N[C@H]1CCCC[C@@H]1N.[Pt+2].c1ccc(-c2nc3ccccc3[nH]2)nc1 [Complex 6a],190 ± 20

# Test system: Calf-thymus DNA (ctDNA)
# Experiment: Fluorescent intercalator displacement (FID) ctDNA binding assay with ethidium bromide
# Set-up: Ka (binding coefficient) / KF (binding constant for fluorescence) / Kq (bimolecular quenching constant) / KSV (Stern–Volmer quenching constant): unit not given here
# Conditions: 75 µM ethidium bromide, 150 µM ctDNA, pH 7.0
# Experimental: To achieve this, the fluorescent signal of a DNA intercalator, in this case, ethidium bromide (EtBr), is measured as increasing concentrations of PC are added. As the PC displaces the EtBr, the fluorescence of the mixture is diminished, and the DNA binding capacity of the complex can be calculated from the fluorescence measurement. Calf-thymus DNA (ctDNA) was used and saturated with EtBr. The change in fluorescence is monitored as the complex is titrated into this solution. Once the decrease in fluorescence plateaued, the titration was ended. […] The fluorescence was measured from 550-750 nm and excited at 480 nm. Importantly, the cuvette was inverted four times, and the solution was incubated for 3 min after the addition of […] to allow adequate time for the PCs to interact with the DNA before scanning. […] A plot of F0/F against [PC] using experimental values allowed the determination of Kq and KSV from the slope as per Equation (5). (5) […] where n is the number of ethidium ligands that are displaced per PC. It is important to note that this expression is a simplification of the true binding interaction, as it ignores the effect of EtBr on the binding equilibrium. […] A plot of Log10[(F0 - F)/F)] against Log10[PC] was used to determine KF and n from the intercept and slope, respectively.
Compound,Binding Stoichiometry,KF (binding constant for fluorescence),KSV (Stern–Volmer quenching constant),Ka (binding coefficient),Kq (bimolecular quenching constant),n (molar equivalents of PC at the point of intersection),ΔFsat (change in fluorescence at the point of binding)
"N[C@H]1CCCC[C@@H]1N.[Pt+2].c1ccc(-c2ncc[nH]2)nc1 [Complex 5a, [Pt(2-(1H-Imidazol-2-yl)pyridine)(1S,2S-(+)-diaminocyclohexane)]^2+]",0.80,3.16 × 10^3,2.11 × 10^3,5.89 × 10^4,0.36 × 10^3,0.87,122.4
N[C@H]1CCCC[C@@H]1N.[Pt+2].c1ccc(-c2nc3ccccc3[nH]2)nc1 [Complex 6a],0.84,2.94 × 10^3,2.12 × 10^3,0.66 × 10^4,0.30 × 10^3,0.71,116.7
